Data set [1] has as its system rat uterine decidualization. Description: Rat decidualization assay. Particulars: ovariectomized rats, s.c.; for Estimated average EC50: average of dose-response curves; for EC50: uterine wet weight (decidual response), individual studies.
A further data set has as its system T47D cells. Kind of data set: T47D cell proliferation assay (BrdU incorporation). In kind it is cell-based. The note with it: decrease in trimegestone induced BrdU incorporation, individual experiments. The protocol: 3. T47D Cell Proliferation Assay
The objective of this assay is the determination of progestational and antiprogestational potency by using a cell proliferation assay in T47D cells. A compound's effect on DNA synthesis in T47D cells is measured.
DMEM:F12(1:1) (GIBCO, BRL) supplemented with 10% (v/v) fetal bovine serum (not heat-inactivated), 100 U/ml penicillin, […], and 2 mM GlutaMax (GIBCO, BRL).
Minimum Essential Medium (MEM) (#51200-038GIBCO, BRL) phenol red-free supplemented with 0.5% charcoal stripped fetal bovine serum, 100 U/ml penicillin, […] streptomycin, and 2 mM GlutaMax (GIBCO, BRL). […]
At the end of BrdU labeling, the medium is removed and BrdU incorporation is measured using a cell proliferation ELISA kit (#RPN 250, Amersham Life Science) according to manufacturer's instructions. […] Then 25 μl of 1 M sulfuric acid is added to each well to stop color reaction and optical density is read in a plate reader at 450 nm within 5 min.
Square root-transformed data are used for analysis of variance and nonlinear dose response curve fitting for both agonist and antagonist modes. […] EC50 or IC50 values are calculated from the retransformed values.
Trimegestone and medroxyprogesterone acetate (MPA) are reference progestins and RU486 is the reference antiprogestin. All reference compounds are run in fill dose-response curves and the EC50 or IC50 values are calculated.
A general note: Dividing cells build labelled thymidine or BrdU into new DNA.

Results on five compounds are retold here after patent US6462032B1, “Cyclic regimens utilizing indoline derivatives” (Wyeth, priority 1999, dated 2002).

The term melting point denotes the temperature, or range, at which the solid turns liquid. By IC50 is commonly meant the concentration that inhibits the measured activity by half. Lower therefore signals greater potency.

Values joined by “and” are separate entries in the source; they are usually repeats but may differ in a detail not shown here. Equal values may be shown once.

With `O=C1CCC(c2cc(F)cc(Br)c2)CC12CNc1ccccc12` (stereo not shown) [Example 28, 5-(3-Bromo-5-fluorophenyl)spiro[cyclohexane-1,3-[3H]indol]-2(1′H)-one], the melting point was in the range of 194 to 196 °C. For the compound `C#C[C@]1(O)CC[C@H]2[C@@H]3CCC4=CC(=O)CC[C@@H]4[C@H]3C(=C)C[C@@]21CC` [3-Ketodesogestrel, 3-ketodesogestrel], in data set [1], the “Estimated average EC50” value is given as 0.10 mg/kg. s.c; the EC50 is 0.10 mg/kg, s.c. and 0.06 mg/kg, s.c. and 0.11 mg/kg, s.c. On to `CC#C[C@]1(O)CC[C@H]2[C@@H]3CCC4=CC(=O)CCC4=C3[C@@H](c3ccc(N(C)C)cc3)C[C@@]21C` [RU486], for which the IC50 in the data set on T47D cells is 0.016 nM and 0.018 nM. `C#C[C@]1(O)CC[C@H]2[C@@H]3CCC4=CC(=O)CC[C@@H]4[C@H]3CC[C@@]21CC` [Levonorgestrel, levonorgestrel]: in data set [1], the “Estimated average EC50” value is on record as 0.10 mg/kg. s.c; the EC50 is 0.08 mg/kg, s.c. and 0.12 mg/kg, s.c. and 0.09 mg/kg, s.c. (2×).

As for `CCC1C(=O)Nc2ccc(-c3cccc(Cl)c3)cc21` (stereo not shown) [Example 6, 5-(3Chloro-phenyl)-3-ethyl-1,3-dihydro-indol-2-one], the melting point was in the range of 100 to 101 °C.
